# Source: US7105675B2, “Pyridomorphinans, thienomorphinans and use thereof” (Southern Research Institute, priority 1999, dated 2006)
# Read-outs that look alike come from different tables or passages of the source.
# Legend:
# μ opioid receptor = target: T1, μ opioid receptor (Rattus norvegicus, UniProt P33535); test: Radioligand binding, mu sites, displacement of [3H]DAMGO in rat brain membranes
# T1 construct: Rat membranes were prepared each day using a partially thawed frozen rat brain; from tissue; host or cells: rat brain membranes
# T1 sequence (P33535 whole entry): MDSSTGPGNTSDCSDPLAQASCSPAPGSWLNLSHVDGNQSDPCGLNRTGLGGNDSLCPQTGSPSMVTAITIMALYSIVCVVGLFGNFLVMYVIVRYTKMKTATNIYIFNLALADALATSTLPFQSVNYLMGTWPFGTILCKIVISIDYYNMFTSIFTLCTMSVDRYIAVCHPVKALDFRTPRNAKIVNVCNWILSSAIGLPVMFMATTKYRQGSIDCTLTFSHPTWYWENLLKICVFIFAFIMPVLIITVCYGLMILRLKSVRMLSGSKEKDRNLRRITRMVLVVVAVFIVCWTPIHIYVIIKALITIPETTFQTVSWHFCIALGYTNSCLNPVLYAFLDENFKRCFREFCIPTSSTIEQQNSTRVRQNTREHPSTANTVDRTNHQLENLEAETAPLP
# Procedure: (§1) Radioligand Binding Assays. Mu binding sites were labeled using [^3H]DAMGO (1–3 nM). Rat membranes were prepared each day using a partially thawed frozen rat brain which was homogenized with a polytron in 10 mL/brain of ice cold 10 mM Tris-HCl, pH 7.0. Membranes were then centrifuged twice at 30,000 g for 10 min and resuspended with ice-cold buffer following each centrifugation. After the second centrifugation, the membranes were resuspended in 50 mM Tris-HCl, pH 7.4 (50 mL/brain) at 25° C. Incubations proceeded for 2 h at 25° C. in 50 mM Tris-HCl, pH 7.4, along with a protease inhibitor cocktail (PIC). The nonspecific binding was determined using 20 μM of levallorphan. Delta binding sites were labeled using [^3]DADLE (2 nM) and rat brain membranes. Rat membranes were prepared each day using a partially thawed frozen rat brain which was homogenized with a polytron in 10 mL/brain of ice cold 10 mM Tris-HCl, pH 7.0. Membranes were then centrifuged twice at 30,000 g for 10 min and resuspended with ice-cold buffer following each centrifugation. After the second centrifugation, the membranes were resuspended in 50 mM Tris-HCl, pH 7.4 (50 mL/brain) at 25° C. Incubations proceeded for 2 h at 25° C. in 50 mM Tris-HCl pH 7.4, containing 100 mM choline chloride, 3 mM MnCl2, and 100 nM DAMGO to block binding to μ sites, and PIC. Nonspecific binding was determined using 20 μM levallorphan. Kappa binding sites were labeled using [^3H]U69,593 (2 nM). Guinea pig brain membranes were prepared each day using partially thawed guinea pig brain which was homogenized with a polytron in 10 mL/brain of ice cold 10 mM Tris-HCl pH 7.0. The membranes were then centrifuged twice at 30,000 g for 10 min and resuspended with ice-cold buffer following each centrifugation. After the second centrifugation, the membranes were resuspended in 50 mM Tris-HCl, pH 7.4 (75 mL/brain) at 25° C. Incubations proceeded for 2 h at 25° C. in 50 mM Tris-HCl, pH 7.4, containing 1 μg/mL of captopril and PIC. Nonspecific binding was determined using 1 μM U69,593. Each ^3H ligand was displaced by 8–10 concentrations of test drug, two times. Compounds were prepared as 1 mM solution with 10 mM Tris buffer (pH 7.4) containing 10% DMSO before drug dilution. All drug dilutions were done at 10 mM Tris-HCl, pH 7.4, containing 1 mg/mL bovine serum albumin. All washes were done with ice-cold 10 mM Tris-HCl, pH 7.4. The IC50 and slope factor (N) were obtained by using the program MLAB-PC (Civilized Software, Bethesda, Md.). Ki values were calculated according to the equation Ki=IC50/(1+[L]/Kd).
# κ1 opioid receptor = target: T2, κ1 opioid receptor (Cavia porcellus, UniProt P41144); test: Radioligand binding, kappa sites, displacement of [3H]U69,593 in guinea pig brain membranes
# T2 construct: Guinea pig brain membranes were prepared each day using partially thawed guinea pig brain; from tissue; host or cells: guinea pig brain membranes
# T2 sequence (P41144 whole entry): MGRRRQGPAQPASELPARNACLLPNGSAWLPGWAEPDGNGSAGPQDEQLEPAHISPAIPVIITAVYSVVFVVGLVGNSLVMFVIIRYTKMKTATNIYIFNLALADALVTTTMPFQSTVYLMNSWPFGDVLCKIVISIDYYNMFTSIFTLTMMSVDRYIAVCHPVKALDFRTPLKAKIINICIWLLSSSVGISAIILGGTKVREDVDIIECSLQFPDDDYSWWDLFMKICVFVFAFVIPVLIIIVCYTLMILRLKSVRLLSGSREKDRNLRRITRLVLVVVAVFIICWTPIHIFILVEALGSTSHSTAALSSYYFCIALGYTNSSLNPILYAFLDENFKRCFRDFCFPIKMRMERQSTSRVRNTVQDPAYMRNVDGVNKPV
# Procedure: as §1
# [1] = target: T3, δ opioid receptor (DPDPE) in MVD (Mus musculus, UniProt P32300); test: Antagonist activity against DPDPE in electrically stimulated mouse vas deferens (MVD); type: cell-based; settings: for antagonist activity DPDPE (δ) MVD IC50 ratio: 1 μM compound, 30 min incubation, IC50 of DPDPE with antagonist divided by control IC50; for Ke selectivity ratio μδ: Ke GPI (μ) over Ke MVD (δ)
# T3 construct: Electrically-induced smooth muscle contractions of mouse vas deferens and strips of guinea pig ileum longitudinal muscle myenteric plexus were used; from tissue; host or cells: mouse vas deferens (male ICR mice)
# T3 sequence (P32300 whole entry): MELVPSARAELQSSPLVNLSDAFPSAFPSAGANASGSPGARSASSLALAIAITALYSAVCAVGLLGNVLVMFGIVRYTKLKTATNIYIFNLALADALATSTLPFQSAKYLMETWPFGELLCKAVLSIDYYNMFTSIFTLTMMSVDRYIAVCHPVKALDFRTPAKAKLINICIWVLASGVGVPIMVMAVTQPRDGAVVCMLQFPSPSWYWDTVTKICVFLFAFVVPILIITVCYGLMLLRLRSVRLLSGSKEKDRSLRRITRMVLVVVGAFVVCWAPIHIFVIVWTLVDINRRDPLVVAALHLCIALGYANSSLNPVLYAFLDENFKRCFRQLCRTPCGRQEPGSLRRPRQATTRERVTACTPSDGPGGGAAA
# Procedure: (§2) Bioassays in GPI and MVD smooth muscle preparations. Electrically-induced smooth muscle contractions of mouse vas deferens and strips of guinea pig ileum longitudinal muscle myenteric plexus were used. Tissues came from maile ICR mice weighing 25–40 g and male Hartley guinea pigs weighing 250–500 g. The tissues were tied to gold chain with suture silk, suspended in 20 mL baths containing 37° C. oxygenated (95% O2, 5% CO2) Krebs bicarbonate solution (magnesium free for the MVD), and allowed to equilibrate for 15 min. The tissues were then stretched to optimal length previously determined to be 1 g tension (0.5 g for MVD) and allowed to equilibrate for 15 min. The tissues were stimulated transmurally between platinum wire electrodes at 0.1 Hz, 0.4 ms pulses (2-ms pulses for MVD), and supramaximal voltage. An initial dose-response curve of DPDPE or PL-017 was constructed at the start of each assay to establish tissue effects, allowing each tissue to be used as its own control.
# (§3) Tissues not producing typical results were not used. Experimental compounds were added to the baths in 14–60 μL volumes. Succeeding doses of argonist were added cumulatively to the bath at 3 minute intervals to produce a concentration-response curve. The tissues were then washed extensively with fresh buffer until the original contraction height was re-established. […] Antagonist effects to DPDPE and PL-017 were assayed after incubation of the tissues with 1 μM concentration of the compound in the bath for 30 minutes. The tissues were then washed with fresh buffer for 30 min, and the agonist dose-response curve was repeated. Rightward shifts in the dose-response curves were calculated by dividing the antagonized dose-response curve IC50 value by the unantagoniced IC50 value. IC50 values represent the mean of two to four tissues. IC50 estimates and their associated standard errors were determined by using a computerized nonlinear least-squares method.
# [2] = test system: μ opioid receptor (PL017) in GPI; test: Antagonist activity against PL-017 in electrically stimulated guinea pig ileum (GPI); type: cell-based; settings: for antagonist activity PL017 (μ) GPI IC50 ratio: 1 μM compound, 30 min incubation, IC50 of PL-017 with antagonist divided by control IC50; for antagonist activity PL017 (μ) GPI Ke: Ke = [antagonist]/(IC50 ratio − 1), PL-017 as agonist, n = 3
# Procedure: as §2, §3
# mouse vas deferens = test: Agonist activity in MVD smooth muscle preparation, inhibition of contraction; type: cell-based; settings: read-out: agonist activity MVD IC50 (nM) or % max resp
# Procedure: as §2, §3
# [3] = test system: guinea pig ileum longitudinal muscle myenteric plexus; test: Agonist activity in GPI smooth muscle preparation, inhibition of contraction; type: cell-based; settings: for inhibition at 1 µM: Cavia porcellus, read-out: agonist activity GPI IC50 (nM) or % max resp
# Procedure: as §2, §3
# δ opioid receptor = δ opioid receptor (Rattus norvegicus, UniProt P33533); test: Radioligand binding, delta sites, displacement of [3H]DADLE in rat brain membranes; design: Rat membranes were prepared each day using a partially thawed frozen rat brain; from tissue; host or cells: rat brain membranes; settings: for Selectivity Ratio κ1δ / Selectivity Ratio μ/δ: ratio of Ki values
# Chain of δ opioid receptor (P33533 whole entry): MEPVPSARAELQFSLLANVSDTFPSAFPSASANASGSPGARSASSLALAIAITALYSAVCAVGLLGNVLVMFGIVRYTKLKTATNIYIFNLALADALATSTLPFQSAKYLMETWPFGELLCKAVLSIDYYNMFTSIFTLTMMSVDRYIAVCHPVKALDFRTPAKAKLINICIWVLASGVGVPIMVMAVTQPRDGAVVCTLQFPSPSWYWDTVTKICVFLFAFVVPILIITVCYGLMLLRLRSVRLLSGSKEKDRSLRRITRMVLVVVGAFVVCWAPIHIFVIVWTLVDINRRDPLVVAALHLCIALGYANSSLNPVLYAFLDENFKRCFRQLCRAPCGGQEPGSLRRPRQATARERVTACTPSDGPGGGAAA
# Procedure: as §1
# [4] = pyridomorphinans, [3H]DAMGO (1.4–2.0 nM), rat brain membranes, read-out: Ki (nM) ± SEM μ
# [5] = pyridomorphinans, [3H]U69,593 (1.2–2.2 nm), guinea pig brain membranes, read-out: Ki (nM) ± SEM κ1
Compound,Ki (μ opioid receptor),Ki (κ1 opioid receptor),Kb [1],antagonist activity DPDPE (δ) MVD IC50 ratio [1],Ke selectivity ratio μδ [1],antagonist activity PL017 (μ) GPI IC50 ratio [2],antagonist activity PL017 (μ) GPI Ke [2],inhibition at 1 µM (mouse vas deferens),inhibition at 1 µM [3],Ki (δ opioid receptor),Selectivity Ratio κ1δ (δ opioid receptor; pyridomorphinans),Selectivity Ratio μ/δ (δ opioid receptor; pyridomorphinans),Ki (μ opioid receptor; [4]),Ki (κ1 opioid receptor; [5]),"Ki (δ opioid receptor; pyridomorphinans, [3H]DADLE (1.3–2.0 nM), rat brain membranes, 100 nM DAMGO to block μ-sites, read-out: Ki (nM) ± SEM δ)",Selectivity Ratio κ1δ (δ opioid receptor; thienomorphinans),Selectivity Ratio μ/δ (δ opioid receptor; thienomorphinans),agonist activity GPI IC50 (nM) or % max resp ([3]; percentage inhibition of contraction at 1 μM)
"Oc1ccc2c3c1OC1c4ncc(Br)cc4CC4(O)C(C2)N(CC2CC2)CCC314 (stereo not drawn) [Compound 7b, 5′-Bromo-17-(cyclopropylmethyl)-6,7-didehydro-3,14-dihydroxy-4,5α-epoxypyrido[2′,3′:6,7]morphinan]",15.5 ± 1 nM,55.7 ± 7 nM,3.1 nM,325 ± 127,14,43.9 ± 25.6,23 nM,0%,0%,1.2 ± 0.13 nM,46,13,–,–,–,–,–,–
"N#Cc1cnc2c(c1)CC1(O)C3Cc4ccc(O)c5c4C1(CCN3CC1CC1)C2O5 (stereo not drawn) [Compound 7c, 5′-Cyano-17-(cyclopropylmethyl)-6,7-didehydro-3,14-dihydroxy-4,5α-epoxypyrido[2′,3′:6,7]morphinan]",16 ± 1.8 nM,33.9 ± 2 nM,44 nM,23.6 ± 2.2,–,2.2 ± 1.1,–,0%,0%,4.5 ± 0.28 nM,7.5,3.6,–,–,–,–,–,–
"CCOC(=O)c1cnc2c(c1)C[C@@]1(O)[C@H]3Cc4ccc(O)c5c4[C@@]1(CCN3CC1CC1)[C@H]2O5 [Compound 7d, 5′-Carbethoxy-17-(cyclopropylmethyl)-6,7-didehydro-3,14-dihydroxy-4,5α-epoxypyrido[2′,3′:6,7]morphinan]",–,–,20 nM,–,–,–,74 nM,0%,0%,–,–,–,37 ± 3.4 nM,9.6 ± 0.93 nM,–,–,–,–
"O=[N+]([O-])c1cnc2c(c1)CC1(O)C3Cc4ccc(O)c5c4C1(CCN3CC1CC1)C2O5 (stereo not drawn) [Compound 7e, 17-(Cyclopropylmethyl)-6,7-didehydro-3,14-dihydroxy-4,5α-epoxy-5′-nitropyrido[2′,3′:6,7]morphinan]",17.5 ± 2 nM,92 ± 12.8 nM,51 nM,20.7 ± 4.2,5.3,4.7 ± 0.59,271 nM,14%,0%,5.5 ± 0.67 nM,17,3.2,–,–,–,–,–,–
"Nc1cnc2c(c1)C[C@@]1(O)[C@H]3Cc4ccc(O)c5c4[C@@]1(CCN3CC1CC1)[C@H]2O5 [Compound 7f, 5′-Amino-17-(cyclopropylmethyl)-6,7-didehydro-3,14-dihydroxy-4,5α-epoxypyrido[2′,3′:6,7]morphinan]",–,–,26 nM,43.3 ± 9.0,1.9,23.4 ± 4.8,49 nM,6%,0%,–,1.5,1.6,12.8 ± 0.93 nM,12 ± 1.2 nM,8 ± 0.3 nM,–,–,–
"N#Cc1c(N)sc2c1[C@@H]1Oc3c(O)ccc4c3[C@@]13CCN(CC1CC1)[C@H](C4)[C@]3(O)C2 [Compound 8a, 5′-Amino-4′-cyano-17-(cyclopropylmethyl)-6,7-didehydro-3,14-dihydroxy-4,5α-epoxythieno [2′,3′:7,6]morphinan]",5.5 ± 0.2 nM,1.5 ± 0.12 nM,9.6 nM,109.6 ± 12.1,0.9,160.3 ± 41.6,8.7 nM,0%,0%,2.6 ± 0.11 nM,–,–,–,–,–,0.6,2.1,–
"COC(=O)c1c(N)sc2c1[C@@H]1Oc3c(O)ccc4c3[C@@]13CCN(CC1CC1)[C@H](C4)[C@]3(O)C2 [Compound 8b, 5′-Amino-4′-carbomethoxy-17-(cyclopropylmethyl)-6,7-didehydro-3,14-dihydroxy-4,5α-epoxythieno[2′,3′:7,6]morphinan]",29 ± 4 nM,8.7 ± 0.34 nM,21 nM,53.5 ± 10.1,1.7,39.1 ± 11.6,35 nM,0%,0%,6.6 ± 0.3 nM,–,–,–,–,–,1.3,4.4,–
"CCOC(=O)c1c(N)sc2c1[C@@H]1Oc3c(O)ccc4c3[C@@]13CCN(CC1CC1)[C@H](C4)[C@]3(O)C2 [Compound 8c, 5′-Amino-4′-carbethoxy-17-(cyclopropylmethyl)-6,7-didehydro-3,14-dihydroxy-4,5α-epoxythieno[2′,3′:7,6]morphinan]",20 ± 1 nM,9 ± 0.81 nM,68 nM,19.8 ± 6.6,0.4,46.0 ± 21.9,26 nM,11%,0%,5 ± 0.2 nM,–,–,–,–,–,1.8,4.0,–
"Nc1sc2c(c1C(=O)OCc1ccccc1)[C@@H]1Oc3c(O)ccc4c3[C@@]13CCN(CC1CC1)[C@H](C4)[C@]3(O)C2 [Compound 8d, 5′-Amino-4′-benzyloxycarbonyl-17-(cyclopropylmethyl)-6,7-didehydro-3,14-dihydroxy-4,5α-epoxythieno[2′,3′:7,6]morphinan]",61 ± 3 nM,48 ± 3 nM,5 nM,289 ± 13,–,–,–,11%,40%,7 ± 0.3 nM,–,–,–,–,–,6.9,8.7,40%
